Results taken from US4921871A, “Enolamides, pharmaceutical compositions and methods of use thereof for treating inflammation” (Warner-Lambert Company, priority 1987, dated 1990).

How the values were obtained:
[1] = target: T1, leukotriene receptor (Cavia porcellus, UniProt Q2NNR5); assay: Binding of 3H-Leukotriene D4 to Guinea Pig Lung Membranes (RBL); settings: 1.00 E -4 M
T1 construct: Two pairs of lungs (1.3 g) from freshly sacrificed 300 g male guinea pigs; tissue Kuiper Rabbit Farm, Gary, Ind; (animals); host or cells: guinea pig lung, crude membranes
T1 sequence (Q2NNR5 1-340): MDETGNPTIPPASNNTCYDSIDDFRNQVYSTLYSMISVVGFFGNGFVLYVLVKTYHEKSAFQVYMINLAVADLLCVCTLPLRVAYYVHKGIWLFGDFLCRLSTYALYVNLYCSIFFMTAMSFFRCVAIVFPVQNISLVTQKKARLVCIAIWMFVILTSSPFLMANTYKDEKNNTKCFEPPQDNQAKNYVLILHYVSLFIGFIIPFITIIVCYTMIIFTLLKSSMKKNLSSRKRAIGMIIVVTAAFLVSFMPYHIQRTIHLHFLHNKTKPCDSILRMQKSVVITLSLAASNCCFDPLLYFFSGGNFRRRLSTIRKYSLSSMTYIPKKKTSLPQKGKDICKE
Protocol: Additionally, the activity, of the compounds having the Formula I of the present invention is determined by the well known leukotriene receptor binding assay that is described by R. F. Bruns, W. J. Thomsen and T. A. Pugsley in Life Sciences, 33, 645 (1983) or the Herxheimer in vivo antiallergy test described in H. Herxheimer, J. Physiol. (London), Vol. 177, p. 251 (1952).
[14,15-^3 H]leukotriene D4 (^3 H-LTD4) (25 Ci/mmol and 40 Ci/mmol) is purchased from New England Nuclear. Unlabeled LTC4 is a gift of Ono Pharmaceuticals (Japan). LTC4, LTD4, and LTE4 are purchased as methyl esters from Paesel GmbH (Frankfurt, W. Germany). Concentrations of the Paesel leukotrienes are calculated from their absorbance at 280 nm. Leukotriene esters are saponified overnight under N2 in 3.3% potassium carbonate at room temperature. Tritiated leukotrienes are stored as received from New England Nuclear at -20° C. Ono LTC4 (5 μg/ml) is stored at -60° C. in phosphate buffer pH - 6.8. Saponified Paesel leukotrienes are stored at -60° C. in 3.3% potassium carbonate (pH 9.0-9.5). Aliquots of leukotrienes are taken from stock solutions immediately after thawing, after which the stock solutions are immediately refrozen. 2-Amino-2-(hydroxymethyl)-1,3-propanediol (Tris) is Sigma pH 7.7 pre-set crystals, and dimethylsulfoxide is Aldrich Gold Label. Preparation of crude lung membranes
Two pairs of lungs (1.3 g) from freshly sacrificed 300 g male guinea pigs (older animals gave substantially lower binding) from Kuiper Rabbit Farm, Gary, Ind. are disrupted with a Polytron PT 10 (setting 4) for 30 seconds in 20 ml ice-cold 50 mM Tris adjusted with HCl to pH 7.7 at 25° C. (Tris buffer), filtered through a single layer of gauze to remove connective tissue, and centrifuged at 50,000 xg for ten min. The pellet is resuspended by homogenization with a Polytron in 20 ml Tris buffer, centrifuged at 50,000 xg for ten min., resuspended, incubated at 37° C. for 30 minutes, and centrifuged again. The final pellet is resuspended in Tris buffer and either used fresh or stored at -70° C.
All incubations are in triplicate for 60 minutes at 25° C. in 12×75 mm polystyrene tubes containing 1 ml Tris buffer with 20 mg original tissue wet weight of guinea pig lung membranes, 0.2 nM ^3 H-LTD4 (6,000-11,000 cpm), 10 mM MgCl2, and 1% dimethylsulfoxide. Leukotrienes are diluted in Tris buffer. All other test compounds dissolved at 10 mM in dimethylsulfoxide on the same day as the experiment, and diluted in dimethylsulfoxide to 100× the final incubation concentration. Control incubations receive an equal volume (10 μl) of dimethylsulfoxide; the resulting concentration of dimethylsulfoxide had no effect on binding. ^3 H-LTD4 is diluted to 2 nM in Tris buffer. The membrane suspension (20 mg/0.89 ml) contains sufficient MgCl2 to give 10 mM final concentration in the incubation. […] All additions are performed at 0° C. Immediately after the last addition, the incubation is initiated by agitating the rack of tubes on a vortex mixer and warming to 25° C. in a water bath. Tubes are vortexed at least once more during the incubation to ensure that the membranes remained suspended. Incubations are terminated after 60 minutes by filtering under reduced pressure through 25 mm Whatman GF/B filters followed by rapid washing three times with 4 ml of ice-cold Tris buffer. Filters are added to scintillation vials with 8 ml Formula 947 (New England Nuclear), left overnight, shaken, and the radioactivity counted in a scintillation counter (efficiency 40%). Nonspecific binding, defined as binding of ^3 H-LTD4 in the presence of 100 nM LTC4, is 300-500 cpm for all lots of ^3 H-LTD4. Binding to the filters in the absence of tissue is about 100 cpm, and is not affected by unlabeled LTC4. Specific binding, defined as total binding minus nonspecific binding, varied considerably from lot to lot of ^3 H-LTD4. […]

[2] = system: Human Leukocyte Lipoxygenase; assay: Human Leukocyte Lipoxygenase Assay (LDA-H); assay type: biochemical; settings: 2.50 E -5 M
Protocol: Whole blood is collected from normal volunteers and spun in a refrigerated centrifuge for four minutes at 1°-6° C. at 3800 g. The buffy coat is manually separated and washed twice with chilled 0.83% NH4 Cl and centrifuged at 1000 RPM for ten minutes at 4° C. The white cell is suspended in culture media-EMEM supplemented with 6% Agamma human serum, tricine buffer, and neomycin and recentrifuged at 1000 g to yield a pellet containing the leukocytes used for the preparation of the acetone pentane powder.
The acetone-pentane powder is prepared utilizing a modification of the procedure reported for human platelet lipoxygenase. See Siegel, et al, Arachidonate Metabolism via Lipoxygenase and 12-L-hydro-peroxy-5 Eicosatetraenoic Acid Peroxidase Sensitive to Antiinflammatory Drugs, Proc. Natl. Acad. Sci., U.S.A. 77:308, 1980 and D. P. Wallach and V. R. Brown, A Novel Preparation of Human Platlet Lipoxygenase, Biochem. Biophys. Acta. 663:361, 1981. Buffy coat prepared above is resuspended in 5-7 volumes of cold 0.1M Tris buffer, pH 7.4 containing 0.154M NaCl. The suspension is centrifuged at 13,300 g for ten minutes at 4° C. The resultant pellet is retained, resuspended in five volumes of cold acetone, recentrifuged at 13,300 g and resuspended in five volumes of cold pentane. The pentane suspension is centrifuged for ten minutes at 13,300 g to give a pellet which is dried in the cold under vacuum with periodic pulverization. The dry powder is stable for several weeks when stored at -80° C.
Enzyme stock solution is prepared in the following manner. About 15 mg of the acetone-pentane powder is suspended in 4 ml of cold tris buffer (0.1M, pH 7.4), allowed to stand for five minutes, and homogenized thoroughly. The homogenate is sonicated three times for 15 seconds each time, diluted to 7 ml with cold tris buffer (0.1M, pH 7.4), and centrifuged at 4° C. for 60 minutes at 13,300 g. The supernatent is retained and diluted to a total of 10 ml with cold tris buffer (0.1M, pH 7.4) to give the stock enzyme solution. Additional dilutions of 2-50 fold are done as necessary to locate optimal enzyme reaction rate in the assay described below.
Substrate solution is prepared at 100 μM or 1.0 μM concentrations of arachidonic acid or linoleic acid in 0.1M tris buffer, pH 9.0 containing 20% ethanol.
The enzyme reaction is followed spectrophotometrically by the appearance of a conjugated diene product at 234 nm. The reaction is monitored at 24° C. using a Gilford Model 2600 spectrophotometer. […] The effects of inhibitors on the reaction are compared with control reactions run under indentical conditions. Routinely, each compounds of the present invention is incubated with the enzyme for five minutes prior to addition of substrate to initiate the reaction. Inhibition expressed as IC50 as molar concentration of the compound required to reduce reaction rate to 50% control.

[3] = target: T2, human leukocyte 5-lipoxygenase (Homo sapiens, UniProt P09917); assay: 5-Lipoxygenase assay in human leukocytes, formation of 5-HETE (5LOA; 5LOA1 or 5LOA2 not specified); assay type: cell-based
T2 construct: endogenous in cells; host or cells: leukocytes from fresh human blood
T2 sequence (P09917 1-674): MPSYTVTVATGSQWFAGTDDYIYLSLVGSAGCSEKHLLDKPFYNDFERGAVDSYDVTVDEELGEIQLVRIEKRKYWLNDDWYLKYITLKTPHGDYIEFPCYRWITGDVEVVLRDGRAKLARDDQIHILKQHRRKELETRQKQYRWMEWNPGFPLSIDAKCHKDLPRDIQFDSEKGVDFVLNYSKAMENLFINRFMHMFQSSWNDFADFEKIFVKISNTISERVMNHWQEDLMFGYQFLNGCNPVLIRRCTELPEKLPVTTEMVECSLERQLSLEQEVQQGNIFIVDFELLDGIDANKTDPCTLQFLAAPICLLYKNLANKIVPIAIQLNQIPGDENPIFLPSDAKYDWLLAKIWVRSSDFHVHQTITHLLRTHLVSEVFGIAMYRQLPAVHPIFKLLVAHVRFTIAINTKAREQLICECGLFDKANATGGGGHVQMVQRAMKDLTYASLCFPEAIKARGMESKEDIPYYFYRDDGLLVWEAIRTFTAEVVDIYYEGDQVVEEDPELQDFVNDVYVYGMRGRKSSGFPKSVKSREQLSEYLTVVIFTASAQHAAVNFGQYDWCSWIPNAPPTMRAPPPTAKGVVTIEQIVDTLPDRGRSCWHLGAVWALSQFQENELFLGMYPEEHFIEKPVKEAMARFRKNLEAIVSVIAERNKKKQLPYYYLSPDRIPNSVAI
Excerpt: To Evaluate the Effect of Each Compounds as a 5-Lipoxygenase Inhibitor in Comparison to Standard Reference Agents in Human Leukocytes (5LOAl)
The purpose of this assay is to evaluate the activity of each compound as an inhibitor of human leukocyte 5-lipoxygenase.
Arachidonic acid and calcium ionophore A23l87 are obtained from Sigma (St. Louis, Mo.). Silica gel plates, GF are obtained from Analtech (Newark, Del.). Arachidonic acid, (1-^14 C) and 5-HETE (^3 H), 5 (S)-hydroxy-6-trans, 8,11,14-cis eicosatetraenoic acid, are obtained from New England Nuclear (Boston, Mass.). Six percent Dextran-70 in 0.9% NaCl is obtained from Cutter Labs (Berkeley, Calif.).
Fresh blood from normal adult men who had not received any drugs for at least the previous five days is obtained by the Community Research Clinic (WL/PD) using venipuncture and collected into heparinized vacuotainer tubes. To every 100 ml of pooled blood is added 25 ml of dextran solution (6% dextran -70 in 0.9% sodium chloride containing 3% dextrose) and this is mixed gently in a plastic cylinder. The mixture is left to stand at room temperature for at least 90 minutes. The upper layer which is rich in leukocytes and platelets is then carefully decanted into 50 ml plastic tubes and centrifuged at about 100×g for eight minutes in an IEC centrifuge and rotor number 269 (about 600 rpm). The supernatant fluid is discarded and the pellet is resuspended in 10 ml of 0.87% ammonium chloride for exactly two minutes. This procedure is to lyse completely contaminating red blood cells. Leukocytes are then separated by centrifugation for ten minutes. The pellet is washed three times by suspension in 20 ml PBS (sodium chloride, 7.1 g; Na2 HPO4, 1.15 g; KH2 PO4, 0.2 g, and KCl, 0.2 g/L) and centrifuged as before. The final pellet is suspended in PBS containing 0.87 mM CaCl2. Viability of the cells is then checked using trypan blue exclusion method and is found to be over 90%.
Leukocyte cells in suspension (0.98 ml) are incubated with or without test compounds for five minutes at 37° C. in a shaking water bath. At this time a 17 μl mixture is prepared per 1 ml of cell suspension: 100 mM arachidonic acid, 1 μl, 0.05 μCi ^14 C-arachidonic acid in 5 .rho.l; 1 mM calcium ionophore A23187, 10 μl (1). This mixture is added and the incubation continued for five minutes. The reaction is stopped by adding four volumes of absolute ethanol and the mixture is kept in ice for 30 minutes. The floculated precipitate is separated by centrifugation at about 37,000×g for 20 minutes (Beckman Instruments rotor number 40). The alcohol extract is taken to dryness under a stream of nitrogen and the residue is dissolved in 100-200 μl absolute ethanol. At the time any turbidity is removed by centrifugation. An aliquot (25-50 μl) is applied onto 20×20 cm silica gel TLC plate and developed using the following solvent system: diethyl ether, petroleum ether (2040° C.), acetic acid (50:50: 1 v/v). Zones of 1 cm apart are scraped from the TLC plate and transferred to mini-vials. Methanol (0.5 ml) is added to dissolve the radioactivity adsorbed to the silica gel and scintillation fluid (H.P., Beckman), 5 ml is then added and vials are counted in a liquid scintillation counter. A sample of ^3 H-5-HETE is applied and used for the identification of the formed 5-HETE.
Total radioactivity in the test as well as the control samples are normalized and the amount of 5-HETE present is calculated accordingly.
IC50 values are defined as the concentrations of test agents which caused a 50% inhibition of the formation of 5-HETE as compared to control and are determined by inspection of the concentration-response curves.
The formation of 5-HETE in human leukocytes is considered a measure of 5-lipoxygenase activity. The protocol is described in the following.
Fresh heparinized or EDTA treated human blood is mixed with 6% dextran-3% dextrose in isotonic saline in the ratio 0.25 ml dextran solution per 1.0 ml blood. […]

RBL, % Inhibition [1]	LDAH, % Inhibition [2]	5LOA, % Inhibition ([3]; 1.00 E -5 M)	5LOA, % Inhibition ([3]; 2.00 E -5 M)	5LOA, % Inhibition ([3]; 4.00 E -5 M)	5LOA, % Inhibition ([3]; 2.00 E -6 M)	SMILES
12.0%						O=C(Nc1ccc(CCc2ccc(Cl)cc2)cc1)C(=O)c1sc2ccccc2c1O [Example 137, Benzo[b]thiophene-2-acetamide, N-[4-[2-(4-chlorophenyl)ethyl]phenyl]-3-hydroxy-α-oxo]
	0.0%	+19.6%	+5.8%	30.0%		O=C(Nc1ccc(CCc2ccc(C(F)(F)F)cc2)cc1)C1CS(=O)(=O)c2ccccc2C1=O (stereo not drawn) [Example 44]
	0.0%	7.0%	2.0%		8.0%	COc1ccc(CCc2ccc(NC(=O)C(=O)c3[nH]c4cc(C)c(C)cc4c3O)cc2)cc1OC [Example 175, 1H-Indole-2-acetamide, N-[4-[2-(3,4-dimethoxyphenyl)ethyl]phenyl]-3-hydroxy-5,6-dimethyl-α-oxo]
